The record followed here is PubChem BioAssay (NCI).

Holding throughout (assay): growth of human tumour cells (NCI), 48 h
For assay [1], the system named is A498 renal.
Assay [2] relates to HT29 colon.
The subject of assay [3] is LOX IMVI melanoma.
Assay [4] concerns MALME-3M melanoma.
Assay [5] has as its system OVCAR-3 ovarian.
The test system of assay [6] is SK-OV-3 ovarian.
The subject of assay [7] is SNB-75 CNS.
The test system of assay [8] is SF-295 CNS.

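48-hour exposure; five concentrations; linearly interpolated endpoints. Abbreviation: GI50, concentration required for 50% inhibition of growth. TGI is the concentration that stops growth completely.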

With `COc1cc(CNc2ccc(C(C)C)cc2)cc(OC)c1OC`, the TGI in assay [1] was found to be 67.7 µM; in assay [2], 33.3 µM; in assay [3] it was 29.9 µM; in assay [4] it was 45.6 µM; in assay [5], 33.4 µM; in assay [6] it was 46.2 µM. Besides, the TGI in assay [7] is 70.5 µM. Further, in assay [5], the GI50 was 16.3 µM.

Turning to `O=C(CN1CCN(c2ccccc2)CC1)N1CCc2c([nH]c3ccccc23)C1c1cccnc1` (configuration not stated), the TGI is above 100 µM in assay [1]; above 100 µM in assay [2]; above 100 µM in assay [3]; above 100 µM in assay [4]; above 100 µM in assay [5]; 84.8 µM in assay [8]. Further, the results for the TGI in assay [6] and in assay [7] were above 88.3 µM and 23.4 µM, respectively.

As to `COc1ccc(NC(=O)c2cc(OC)c(OC)c(OC)c2)cc1`, the TGI in assay [1] is above 100 µM; in assay [2], above 100 µM; in assay [3], above 100 µM; in assay [4], 97.7 µM; in assay [5] it was above 100 µM; in assay [8] it was above 100 µM. Moreover, the TGI in assay [6] and in assay [7] was above 100 µM each time.

Regarding `CC(C)CC1=[N+]=C(NC#N)N=C(CCC(=O)Nc2ccccc2[N+](=O)[O-])C1`, the TGI in assay [1], in assay [2], in assay [3], in assay [4], in assay [5] and in assay [8] was above 100 µM throughout. Besides, the TGI in assay [6] and in assay [7] was above 100 µM in each case.

For `COc1cccc(C2c3cc4c(cc3OC(O)(CO)C2C(=O)O)OCO4)c1` (configuration not stated) (tested in a mixture with another compound), the TGI in assay [1], in assay [2], in assay [3], in assay [4], in assay [5] and in assay [8] was above 100 µM each time. The TGI in assay [6] is above 100 µM; in assay [7], 54 µM.

In the case of `CCCCCCCCCCCCCCCCCCCCCC(=O)Nc1ccn(C2OC(CO)C(O)C2O)c(=O)n1` (configuration not stated), the TGI in assay [1], in assay [2], in assay [3], in assay [4], in assay [5] and in assay [8] was above 100 µM in each case. For the same compound, the TGI in assay [6] and in assay [7] was above 100 µM in each case.

Turning to `Cc1cccc(C(C)C)c1NC(=O)C(=O)CC(=O)c1c(C)n([O-])c2ccccc2[n+]1=O`, the TGI in assay [1] was above 100 µM; in assay [2], above 100 µM; in assay [3], above 100 µM; in assay [4], 44.1 µM; in assay [5], 22 µM; in assay [8], above 100 µM. In addition, the TGI in assay [6] was above 100 µM; in assay [7] it was 71.1 µM.

Regarding `CC(=O)Oc1ccc(O)c(O)c1C/C=C(\C)CC/C=C(\C)CC/C=C(\C)CCC=C(C)C`, the TGI in assay [2] was 1.18 µM; in assay [3], 0.694 µM; in assay [4] it was 0.782 µM; in assay [8] it was 4.27 µM; in assay [7] it was 1.92 µM.

Take `COc1ccc(O)c(C#N)c1C#N`: the TGI in assay [1], in assay [2], in assay [3], in assay [4], in assay [5] and in assay [8] was above 100 µM throughout. The TGI in assay [6] and in assay [7] was above 100 µM in each case.

As to `CC/C=C\C/C=C\C/C=C\CCCCCCCC(=O)OCC`, the TGI in assay [1], in assay [2], in assay [3], in assay [4], in assay [5] and in assay [8] was above 100 µM throughout. In addition, the TGI in assay [6] and in assay [7] was above 100 µM each time.

In the case of `CCCCCCCCCc1cc(=O)c2ccc(O)cc2o1`, the TGI in assay [2], in assay [3], in assay [4], in assay [5], in assay [8] and in assay [6] was above 100 µM in each case. Besides, the TGI in assay [7] stood at 56.4 µM.

Take `CSc1nc2c(nc(N)n2C2OCC(O)C(O)C2O)c(=O)n1C` (configuration not stated): the TGI in assay [1], in assay [2], in assay [3], in assay [4], in assay [5] and in assay [8] was above 100 µM in each case. For the same compound, the TGI in assay [6] and in assay [7] was above 100 µM each time.

As to `Cn1nc(-c2ccccc2)c(C(=O)/C=C/c2ccccc2)c(N2CCOCC2)c1=O`, the TGI was 35 µM in assay [1], 33 µM in assay [2], 60.5 µM in assay [3] and 81 µM in assay [6].

Turning to `CCOC(=O)NN1C(=O)C(=P(c2ccccc2)(c2ccccc2)c2ccccc2)C(C(=O)OCC)=C1C`, the TGI in assay [1], in assay [2], in assay [3], in assay [4], in assay [5] and in assay [8] was above 100 µM throughout. Moreover, the TGI in assay [6] and in assay [7] was above 100 µM throughout.

Turning to `S=c1[nH]c2ccc(Br)cc2c(=S)n1-c1ccccc1`, the TGI in assay [1] came to 98.4 µM; in assay [2] it was 47.7 µM; in assay [3] it was 85.1 µM; in assay [4] it was 32.1 µM; in assay [5] it was 78.3 µM; in assay [8] it was 55.7 µM. Also, the TGI in assay [6] was 85.6 µM; in assay [7], 79.1 µM.

Turning to `CC1S(=O)(=O)OCCOS1(=O)=O`, the TGI in assay [1], in assay [2], in assay [3], in assay [4], in assay [5] and in assay [8] was above 100 µM in each case. Besides, the TGI in assay [6] and in assay [7] was above 100 µM each time.

In the case of `Cc1cc(=O)oc2cc3c(cc12)Oc1ccccc1O3`, the TGI in assay [1], in assay [2], in assay [3], in assay [4], in assay [5] and in assay [8] was above 100 µM throughout. In addition, the TGI in assay [6] is above 100 µM; in assay [7], 59.9 µM.

As to `CCC12CCCC(=O)N1C(CO)C(c1ccccc1)O2` (configuration not stated), the TGI in assay [1], in assay [2], in assay [3], in assay [4], in assay [5] and in assay [8] was above 100 µM each time. In assay [7], this compound yielded a TGI above 100 µM.

As to `O=C(O)c1cc(=O)c2[nH]c3ccccc3c2s1`, the TGI in assay [4], in assay [5], in assay [8], in assay [6] and in assay [7] was above 100 µM in each case.

In the case of `CC(=O)n1c2ccccc2c2nc3nc(Oc4ccc(C)cc4)c4ccccc4c3cc21`, the TGI in assay [2], in assay [3], in assay [4], in assay [5], in assay [8] and in assay [6] was above 100 µM in each case. For the same compound, in assay [7], the TGI was above 100 µM.

As for `COc1cccc(C(=O)C2C(=O)N(C)CCc3ccccc32)c1OC` (configuration not stated), the TGI in assay [1], in assay [2], in assay [3], in assay [4], in assay [5] and in assay [6] was above 100 µM in each case. Further, the TGI in assay [7] was above 100 µM.

Take `COc1cc(/C=C/C(=O)c2sc(Nc3ccccc3)nc2C)ccc1O`: the TGI in assay [1], in assay [2], in assay [3], in assay [4], in assay [5] and in assay [8] was above 100 µM throughout. Moreover, the values for the TGI in assay [6] and in assay [7] were above 100 µM and 84.8 µM, respectively.

Consider `CN(C)CCCN1CCc2c([nH]c3ccccc23)C1c1cccnc1` (configuration not stated), for which the TGI in assay [1], in assay [2], in assay [3], in assay [4], in assay [5] and in assay [8] was above 100 µM throughout. Moreover, the TGI in assay [6] and in assay [7] was above 100 µM in each case.

With `N#CC(C(=O)C(=O)NCCCNC(=O)C(=O)C(C#N)c1ccccc1)c1ccccc1` (configuration not stated), the TGI in assay [1], in assay [2], in assay [3], in assay [4], in assay [5] and in assay [8] was above 100 µM in each case. The TGI in assay [6] and in assay [7] was above 100 µM in each case.

Turning to `NNC(=O)CCC(=O)NC1C2CC3CC(C2)CC1C3` (configuration not stated), the TGI in assay [1], in assay [2], in assay [3], in assay [4], in assay [8] and in assay [6] was above 100 µM throughout. Moreover, in assay [7], the TGI was above 100 µM.

Consider `O=c1cc(-c2ccccc2)c2cc3c(=O)ccoc3cc2o1`, for which the TGI in assay [1] was 78.7 µM; in assay [2], above 100 µM; in assay [3], above 100 µM; in assay [4], above 100 µM; in assay [5], above 100 µM; in assay [8], above 100 µM. The compound also displayed a TGI in assay [7] of 90.3 µM.
